Measured values from patent US20240398738A1, “MANIPULATION OF THE RETINOIC ACID SIGNALING PATHWAY” (THE REGENTS OF THE UNIVERSITY OF CALIFORNIA, priority 2017, published 2024).

How the values were obtained:
RGCs in rd1 retina [1] = experiment: MEA recording of photoswitch (QAQ, BENAQ) photosensitization in rd1 retina; assay type: in vivo, mouse; details: rd1 retina without BMS-493, mean±SEM
Experimental: (§1) Intravitreal Injections. Before injection, mice were anesthetized with isoflurane (2%) and their pupils were dilated with tropicamide (1%) and phenylephrine (2.5%). Proparacaine (0.5%) was used as a topical analgesic. Genteal was applied under a glass coverslip to keep the cornea lubricated. An incision was made through the sclera below the ora serrata with a 30G needle and ˜1 μl of solution was injected into the vitreous with a blunt-ended 33G Hamilton syringe. After injection, the antibiotic tobramycin (0.3%) was applied to the eye. Final drug concentrations after intravitreal injection were: all-trans retinoic acid (ATRA, 100 nM), liarozole (100 μM), diethylaminobenzaldehyde (DEAB, 20 μM), citral (50 μM), BMS-493 (500 nM), and retinaldehyde (1 μM). The above values correspond to the final concentration in the eye after injecting 1 μl of drug accounting for a 5-fold dilution. An injection of PBS including 1% DMSO was used as vehicle control.
(§2) Multi Electrode Array Recordings. For extracellular recordings, a flat-mounted retina was placed ganglion cell layer down onto a 60-electrode Multi-Electrode Array (MEA 1060-2-BC, Multi-Channel Systems). After mounting the retina, photoswitches were applied for 30 min, followed by a 15 min wash. BENAQ was applied at a concentration of 100 μM and QAQ at 300 μM. A solution containing a mixture of neurotransmitter receptor blockers isolated RGCs from synaptic inputs: (in μM) 10 AP4, 40 DNQX, 30 AP5, 10 SR-95531, 50 TPMPA, 10 strychnine, and 50 tubocurarine. Extracellular spikes were high-pass filtered at 200 Hz and digitized at 20 kHz and were counted when exceeding 4 SD from the mean background voltage signal. Typically, each electrode recorded spikes from one to three individual RGCs. Principal component analysis of the spike waveforms was used for sorting spikes generated by individual cells (Offline Sorter, Plexon). Stimulation light was generated from a mercury arc lamp. Unfiltered broad spectrum light was used for BENAQ-treated retinas. Narrow band optical filters (Chroma) were used to deliver alternating intervals of 380 nm and 500 nm for stimulation of QAQ-treated as described previously (5,12). The Photoswitch Index (5) (PI) was established for individual retinas in light/darkness for treatment with BENAQ or in 380 nm/500 nm light for treatment with QAQ (11,12).
(§3) Injections. Intravitreal injections: Adult mice and rats were intravitreally injected with drugs or viruses. Before injection, animals were anesthetized with isoflurane (2%) and their pupils were dilated with tropicamide (1%) and phenylephrine (2.5%). Proparacaine (0.5%) was used as a topical analgesic. Genteal was applied under a glass coverslip to keep the cornea lubricated. An incision was made through the sclera below the ora serrata with a 30G needle. Solutions were injected into the vitreous with a blunt-ended 33G Hamilton syringe. After injection, the antibiotic tobramycin (0.3%) was applied to the eye. Final drug concentrations (after 5-fold dilution in the vitreous) were: 100 nM all-trans retinoic acid (ATRA), 100 μM liarozole (24), 20 μM diethylaminobenzaldehyde (DEAB) (28,93), 50 μM citral, 500 nM BMS 493 (85), 1 μM retinaldehyde, and vehicle comprising of 1× phosphate buffered saline (PBS) containing 1% dimethyl sulfoxide (DMSO). Intravitreal injections were performed using AAV2 serotype only. WT and rd1 mice were injected with the RAR-reporter virus or the RARDN virus, at age 1-1.5 month-old. […]

RGCs in rd1 retina [2] = experiment: YO-PRO-1 loading assay (dye permeability of RGCs) in rd1 retina after intravitreal injection; assay type: in vivo, mouse; details: for Yo-Pro-1 labeling of rd1-RGCs, result in words: rd1, intravitreal injection, compared to vehicle-injected; for percentage of YO-PRO-1 positive cells (fraction of RGC nuclei labeled): rd1 mice, intravitreal injection, measured 3-7 days after, BMS-493 500 nM, DEAB 20 uM, citral 50 uM, mean±SEM
Experimental: as §1
(§4) Yo-PRO-1 Loading Assay. After dissection, retinas were cut into thirds and mounted on a windowed nitrocellulose filter paper. Retinas were treated with 200 nM Yo-PRO-1 (Life Technologies) in oxygenated ACSF for 15 minutes, followed by treatment and then treated with nuclear ID (Enzo Life Sciences) at a 1:500 dilution for 3 minutes. ACSF was perfused continuously at 3 ml/min for a period of 5 minutes to wash away excess dye. In experiments employing TNP-ATP (200 μm), the retinas was pretreated with the compound for ten minutes before beginning YO-PRO-1 treatment.
(§5) Image analysis. All image analysis was performed using ImageJ or Fiji software (55,56). Yo-PRO-1 loading assay, ROIs were manually selected using the nuclear-ID channel based upon morphological characteristics. This was performed after computationally flattening the retina by performing a maximum Z projection onto a single plane. Following this, a background subtraction was performed with a rolling radius of 50 pixels. Cells identified as vascular endothelial cells or pericytes were not included in the analysis. This was confirmed using transillumination. A threshold for YO-PRO-1 loading was established by measuring the level of autofluorescence of untreated retinas in each channel and finding a baseline value with +2SD being the threshold for a YO-PRO-1 positive cell. Nuclear-ID was used to count the total number of cells within a field of view. The percentage of cells above the threshold was then calculated for comparison. For analysis of RARE double reporter virus assay, ROIs were manually selected on the RFP channel first and then superimposed to the GFP channel. Single cell values for both RFP and GFP were filtered by using a RFP minimum threshold established in naive unlabeled retinas.
as §3, with “month-old. WT and s334ter rats were injected with the RAR-reporter virus at age 3-4 month-old. Final volume of injections was 1-1.5 μL for mice and 5 μL for rats.” for “month-old.”

RGCs in WT retina [3] = experiment: YO-PRO-1 loading assay (dye permeability of RGCs) in WT retina after intravitreal injection; assay type: in vivo, mouse; details: for percentage of YO-PRO-1 positive cells: intravitreal injection 3-7 days before, ATRA 100 nM, liarozole 100 μM, retinaldehyde 1 μM, DEAB 20 μM; for Yo-Pro-1 labeling of WT-RGCs, result in words: WT retina, substance injected intravitreally alone
Experimental: as §1, §4, §5
as §3, with “month-old. WT and s334ter rats were injected with the RAR-reporter virus at age 3-4 month-old. Final volume of injections was 1-1.5 μL for mice and 5 μL for rats.” for “month-old.”

gap junctions = details: micromolar concentrations are required; cited from earlier work
RGCs in WT retina [4] = experiment: MEA recording of photoswitch (QAQ, BENAQ) photosensitization in WT retina; assay type: in vivo, mouse
Experimental: as §1, §2
Injections. Intravitreal injections: Adult mice and rats were intravitreally injected with drugs or viruses. Before injection, animals were anesthetized with isoflurane (2%) and their pupils were dilated with tropicamide (1%) and phenylephrine (2.5%). Proparacaine (0.5%) was used as a topical analgesic. Genteal was applied under a glass coverslip to keep the cornea lubricated. An incision was made through the sclera below the ora serrata with a 30G needle. Solutions were injected into the vitreous with a blunt-ended 33G Hamilton syringe. After injection, the antibiotic tobramycin (0.3%) was applied to the eye. Final drug concentrations (after 5-fold dilution in the vitreous) were: 100 nM all-trans retinoic acid (ATRA), 100 μM liarozole (24), 20 μM diethylaminobenzaldehyde (DEAB) (28,93), 50 μM citral, 500 nM BMS 493 (85), 1 μM retinaldehyde, and vehicle comprising of 1× phosphate buffered saline (PBS) containing 1% dimethyl sulfoxide (DMSO). Intravitreal injections were performed using AAV2 serotype only. WT and rd1 mice were injected with the RAR-reporter virus or the RARDN virus, at age 1-1.5 month-old. WT and s334ter rats were injected with the RAR-reporter virus at age 3-4 month-old. Final volume of injections was 1-1.5 μL for mice and 5 μL for rats.
Multi Electrode Array Recordings. Flat-mounted retina was placed ganglion cell layer down onto a 60-electrode Multi-Electrode Array (MEA 1060-2-BC, Multi-Channel Systems). After mounting the retina was left to dark adapt for 20 minutes under constant perfusion with oxygenated saline at 34° C. 300 μM QAQ at was applied for 30 min, followed by a 5 min wash. […]

Question: With CCN(Cc1ccccc1)c1ccc(/N=N/c2ccc(NC(=O)C[N+](CC)(CC)CC)cc2)cc1 [BENAQ, benzylethylamino-azobenzene-quaternary ammonium] as the compound, how does the “Photoswitch Index (PI) of BENAQ” value (RGCs in rd1 retina [1]; white light/darkness) read?
Answer: Its value is 0.56±0.03.

Question: Which “Yo-Pro-1 labeling of rd1-RGCs, result in words” value (RGCs in rd1 retina [2]) does the source give for CCN(CC)c1ccc(C=O)cc1 [DEAB, diethylaminobenzaldehyde] here?
Answer: Its value is “significantly reduced the percentage of rd1-RGCs labeled with Yo-Pro-1”.

Question: And the “percentage of YO-PRO-1 positive cells (fraction of RGC nuclei labeled)” value (RGCs in rd1 retina [2])?
Answer: Its value is 19.77±2.32%.

Question: What about the “percentage of YO-PRO-1 positive cells, retinaldehyde co-injected with DEAB” value (RGCs in WT retina [3]; WT mice, co-injection with retinaldehyde, 3-7 days before imaging, mean±SEM) of the same compound?
Answer: The value was 7.65±1.34%.

Question: What about the “percentage of YO-PRO-1 positive cells” value (RGCs in WT retina [3]; WT mice, mean±SEM) of the same compound?
Answer: The value was 7.47±1.21%.

Question: And the “Yo-Pro-1 labeling of WT-RGCs, result in words” value (RGCs in WT retina [3])?
Answer: The value was “caused no change in Yo-Pro-1 labeling”.

Question: With Cc1ccc(Cl)c(Nc2ccccc2C(=O)O)c1Cl [Meclofenamic acid] as the compound, how does the “effect on RGC light responses” value (gap junctions) read?
Answer: Its value is “augments RGC light responses by reducing hyperactivity”.

Question: For CC[N+](CC)(CC)CC(=O)Nc1ccc(N=Nc2ccc(NC(=O)C[N+](CC)(CC)CC)cc2)cc1 [QAQ, quaternary ammonium-azobenzene-quaternary ammonium], which “Photoswitch Index (PI) of QAQ” value (RGCs in rd1 retina [1]; QAQ 300 μM, 380/500 nm) is on record?
Answer: Its value is 0.63±0.12.

Question: Which results are given for CC1=C(/C=C/C(C)=C/C=C/C(C)=C/C=O)C(C)(C)CCC1 [Retinaldehyde, retinaldehyde]?
Answer: percentage of YO-PRO-1 positive cells (RGCs in WT retina [3]; WT mice, mean±SEM): 14.6±2.29%; Yo-Pro-1 labeling of WT-RGCs, result in words (RGCs in WT retina [3]): significantly increasing Yo-Pro-1 labeling above baseline

Question: What does the source list for CC(C)=CCCC(C)=CC=O [citral]?
Answer: Yo-Pro-1 labeling of rd1-RGCs, result in words (RGCs in rd1 retina [2]): significantly reduced the percentage of rd1-RGCs labeled with Yo-Pro-1; percentage of YO-PRO-1 positive cells (fraction of RGC nuclei labeled) (RGCs in rd1 retina [2]): 9.87±2.39%

Question: Which “percentage of YO-PRO-1 positive cells” value (RGCs in WT retina [3]; WT mice, mean±SEM) does the source give for Clc1cccc(C(c2ccc3[nH]cnc3c2)n2ccnc2)c1 (stereo not shown) [liarozole] here?
Answer: Its value is 8.66±1.36%.

Question: What about the “Yo-Pro-1 labeling of WT-RGCs, result in words” value (RGCs in WT retina [3]) of the same compound?
Answer: The value was “had no effect by itself”.

Question: What about the “QAQ photosensitization of WT retina, in words” value (RGCs in WT retina [4]; WT retina, 3-7 days after intravitreal injection) of the same compound?
Answer: Its value is “Neither ATRA nor liarozole alone enabled significant QAQ photosensitization”.

Question: What about the “Photoswitch Index (PI) with QAQ” value (RGCs in WT retina [4]; WT retina, 3-7 days after intravitreal injection, QAQ 300 μM, mean±SEM) of the same compound?
Answer: The value was 0.27±0.13.

Question: What does the source list for TNP-ATP?
Answer: percentage of YO-PRO-1 positive cells, ATRA-induced labeling with blocker (RGCs in WT retina [3]; WT mice injected with ATRA, TNP-ATP bath-applied ex vivo or BMS-493 co-injected, mean±SEM): 0.39±0.31%; Photoswitch Index (PI) with QAQ, ATRA plus liarozole with TNP-ATP (RGCs in WT retina [4]; WT retina injected with ATRA plus liarozole, TNP-ATP bath-loaded, mean±SEM): 0.19±0.14; effect on QAQ photosensitization induced by ATRA plus liarozole, in words (RGCs in WT retina [4]; WT retina, TNP-ATP bath-loaded): blocked by TNP-ATP
